# Reference: US6407204B1 (priority 1997, dated 2002)
# Entries after “also recorded” stand apart in the source; their conditions may differ.
# What was measured:
# Male Sprague-Dawley rats [1] = details: rat, in vivo
# Male Sprague-Dawley rats [2] = details: rat, in vivo; remark: listed apart in the source
# formalin test = details: literature; ifenprodil at a high dose; cited from earlier work
# [3] = tested on: NMDA polyamine site, forebrain membrane preparations; details: cited from earlier work
# NMDA receptor = details: literature, cited from earlier work; for motor impairment: relative to analgesic doses
# [4] = tested on: GABAergic neurons of the QA lesioned striatum; details: rat, in vivo
# [5] = tested on: cholinergic neurons of the QA lesioned striatum; details: rat, in vivo
compound,measurement,setting,value
β-endorphin,overt side effects,Male Sprague-Dawley rats [1],overt signs of sedation and motor impairment
same,"dose at which maximal possible effect was observed, phase I",Male Sprague-Dawley rats [2],1.0 µg
same,"dose at which maximal possible effect was observed, phase II",Male Sprague-Dawley rats [2],3.3 µg
same,dose required to inhibit / significantly attenuate phase I flinches,Male Sprague-Dawley rats [2],0.3 µg
same,dose required to inhibit / significantly attenuate phase II flinches,Male Sprague-Dawley rats [2],0.6 µg
same,effect of the single agent alone,Male Sprague-Dawley rats [2],no effect
same,effect on flinches in both phase I and phase II,Male Sprague-Dawley rats [2],dose-dependent decrease in flinches
same,effect on phase I flinches,Male Sprague-Dawley rats [2],no effect
same,effect on phase II flinches,Male Sprague-Dawley rats [2],no effect
CC(C(O)c1ccc(O)cc1)N1CCC(Cc2ccccc2)CC1 (stereo not shown) [ifenprodil],analgesic effect in the formalin test,formalin test,did not have an analgesic effect; also recorded: no effect
Gly-Glu-Gla-Gla-Val-Ala-Lys-Met-Ala-Ala-Glu-Leu-Ala-Arg-Glu-Asn-Ile-Ala-Lys-Gly-Cys-Lys-Val-Asn-Cys-Tyr-Pro [Conantokin R],dose required to inhibit / significantly attenuate phase I flinches,Male Sprague-Dawley rats [2],3.3 µg
same,dose required to inhibit / significantly attenuate phase II flinches,Male Sprague-Dawley rats [2],3.3 µg
NCCCNCCCCNCCCN [spermine],maximal effective concentration for enhancement of [3H]MK-801 binding,[3],about 20 μM
"c1ccc(C2(N3CCCCC3)CCCCC2)cc1 [phenylcyclidine (PCP), phenylcyclidine]",analgesic activity,NMDA receptor,show analgesic activity
same,motor impairment,NMDA receptor,show motor impairment at equivalent doses
Gly-Glu-Gla-Gla-Leu-Gln-Gla-Asn-Gln-Gla-Leu-Ile-Arg-Gla-Lys-Ser-Asn-NH2 [Conantokin G],dose required to inhibit / significantly attenuate phase I flinches,Male Sprague-Dawley rats [2],1.0 µg
same,dose required to inhibit / significantly attenuate phase II flinches,Male Sprague-Dawley rats [2],0.05 µg
same,QA lesion-induced loss of GAD activity,[4],completely blocked; also recorded: complete prevention
same,QA lesion-induced loss of ChAT activity,[5],completely blocked
C[C@]12N[C@H](Cc3ccccc31)c1ccccc12 [MK-801],analgesic activity,NMDA receptor,show analgesic activity
same,motor impairment,NMDA receptor,show motor impairment at equivalent doses
same,side effects at the dose attenuating phase II flinches,Male Sprague-Dawley rats [1],"side effects, including head weaving"
same,toxicity at doses that decreased flinches,Male Sprague-Dawley rats [1],clear toxicity
same,analgesic effect in the formalin test,formalin test,submaximal analgesic effect
same,dose required to inhibit / significantly attenuate phase II flinches,Male Sprague-Dawley rats [2],30 µg
